In series [1] the test system is BCEC+ astrocyte co-cultures. To be noted: FIG. 2; earlier experiments (Gaillard 2000a); cited from earlier work.
Series [2] has as its system brain cortex. Put plainly: In vivo brain distribution: HRP activity in brain cortex homogenate samples. The arrangement: species or system Guinea pigs. To be noted: 1.5 h after intracarotid bolus injection, 500 microgram/ml HRP equivalent in 0.5 ml saline (FIG. 18). How it is done:
Brain uptake of CRM197 or holo-transferrin (TrF) conjugated to HRP (2:1 weight/weight ratio) was determined 1.5 h after an intracarotid bolus injection of the conjugates (corresponding to a concentration of 500 microgram/ml in 0.5 ml saline of un-conjugated HRP), and compared to an equal concentration of free HRP, in young male Guinea pigs (Dunkin-Hartley HsdPoc:HD, 250-300 g). The proteins were conjugated to HRP by means of a HRP conjugation kit according to the manufacturers instructions (α Diagnostic International, San Antonio, Tex., USA). In addition, conjugated proteins were further purified on a HiPrep 16/60 column packed with Sephacryl S-200 HR matrix (Amersham Biosciences, UK). Briefly, the animals were anesthetized with isoflurane inhalation (4% induction, 1-1.5% maintenance) in an air/oxygen mixture (2:1). A cannula was placed in the carotid artery for blood sample collection and drug administration. […]
The cortex of perfused brains (and one non-perfused control brain) was dissected and weighted. […] Tissue/cells were lysed by an aqueous solution of 0.1% Na-deoxycholate (final concentration) before the HRP activity was detected in the clear supernatant of the spun-down homogenates using a standard colorimetric assay with the appropriate calibration curves and corrections for dilutions and protein content of the supernatants.

The test system of series [3] is brain cortex. To be noted: 1.5 h after intracarotid bolus injection (FIG. 19).
The subject of the next series is brain. To be noted: guinea pig, in vivo.
The target of the next series is LPSS14 (DTR) (Bos taurus, UniProt E1BIN8). The series is classed as cell-based, bovine.
LPSS14 (DTR), sequence (E1BIN8 24-208 limits assumed): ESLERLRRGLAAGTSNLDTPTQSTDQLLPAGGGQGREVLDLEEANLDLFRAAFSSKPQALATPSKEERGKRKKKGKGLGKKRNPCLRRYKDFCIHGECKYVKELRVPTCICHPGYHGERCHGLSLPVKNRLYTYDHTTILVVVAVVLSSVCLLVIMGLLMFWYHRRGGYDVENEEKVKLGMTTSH

In the case of `C[C@@H]1C[C@@H]([C@H](O)CC2CC(=O)NC(=O)C2)C(=O)[C@@H](C)C1` [cycloheximide], the “recovery of BCEC+ astrocyte co-cultures from LPS” value in series [1] is given as “completely inhibit the recovery phase”.
Consider “free HRP: un-conjugated horseradish peroxidase, a 40 kDa enzyme”, for which, in the series on brain cortex [2], the “HRP activity in brain cortex homogenate samples (homogenate, parenchyma, capillaries)” value is given as “below the detection limit”. Also, the “TMB staining of cryosections of well-perfused brains” value in the series with brain cortex [3] was “no visible staining”. In addition, the “staining for CRM197 by immunohistochemistry for diphtheria toxin” value in the series on brain is “not observed”.
Consider heparin, for which the “toxicity consistent with a higher concentration of DT” value at LPSS14 (DTR) (heparin 125 microgram/ml 1 h pretreatment, 100 ng/ml DT) turned out to be 10 fold. Further, the “DT toxic effect took place earlier than untreated controls” value on LPSS14 (DTR) (heparin 125 microgram/ml 1 h pretreatment, 100 ng/ml DT (FIG. 9)) was “about 1 hour”. At LPSS14 (DTR) (pretreatment: CRM197 5 microgram/ml 1 h, heparin 125 microgram/ml 1 h, LPS 1 microgram/ml 2 h, BB94 10 micromolar 1 h (FIG. 8-10)), the “toxic effect after apical exposure to 100 ng/ml DT on pretreated BCEC” value is reported as “increased”.

The values above are taken from patent US8613929B2, “Methods and compositions for targeting agents into and across the blood-brain barrier and other endothelial cell microvascular barriers” (priority 2003, dated 2013).
